Measured values reported in ChEMBL document CHEMBL1909294, “Translating clinical findings into knowledge in drug safety evaluation--drug induced liver injury prediction system (DILIps)” (PLoS Comput Biol, 2011).

Tests used:
Hepatotoxicity [1] = test system: Hepatotoxicity;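 for HepSE bilirubinemia: bilirubinemia hepatic side effect score drawn from the DILIps training data, a prediction system for drug-induced liver injury; call rule not given here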;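 for HepSE cholecystitis: Cholecystitis-related hepatic side effect score drawn from the DILIps (drug-induced liver injury prediction) training data set; call rule not given here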;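 for HepSE cholelithiasis: hepatic side effect score for cholelithiasis, drawn from the DILIps training data for predicting drug-induced liver injury; call rule not given here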;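 for HepSE cirrhosis: cirrhosis hepatic side effect score taken from the DILIps (drug-induced liver injury prediction) training set; call rule not given here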;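 for HepSE elevated liver function tests: hepatic side effect score for raised liver function tests, as recorded in the DILIps training set used for predicting drug-induced liver injury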; for HepSE hepatic failure: call rule not given here;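 for HepSE hepatomegaly: hepatic side effect score for hepatomegaly, taken from the training set of the DILIps drug-induced liver injury prediction system; call rule not given here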
Hepatotoxicity [2] = test system: Hepatotoxicity; remark: listed apart in the source;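 for HepSE bilirubinemia: bilirubinemia hepatic side effect score drawn from the DILIps training data, a prediction system for drug-induced liver injury; call rule not given here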;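 for HepSE cholecystitis: Cholecystitis-related hepatic side effect score drawn from the DILIps (drug-induced liver injury prediction) training data set; call rule not given here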;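 for HepSE cholelithiasis: hepatic side effect score for cholelithiasis, drawn from the DILIps training data for predicting drug-induced liver injury; call rule not given here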;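 for HepSE cirrhosis: cirrhosis hepatic side effect score taken from the DILIps (drug-induced liver injury prediction) training set; call rule not given here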;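 for HepSE elevated liver function tests: hepatic side effect score for raised liver function tests, as recorded in the DILIps training set used for predicting drug-induced liver injury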; for HepSE hepatic failure: call rule not given here
Hepatotoxicity [3] = test system: Hepatotoxicity; remark: listed apart in the source;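 for HepSE bilirubinemia: bilirubinemia hepatic side effect score drawn from the DILIps training data, a prediction system for drug-induced liver injury; call rule not given here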;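 for HepSE cholecystitis: Cholecystitis-related hepatic side effect score drawn from the DILIps (drug-induced liver injury prediction) training data set; call rule not given here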;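 for HepSE cholelithiasis: hepatic side effect score for cholelithiasis, drawn from the DILIps training data for predicting drug-induced liver injury; call rule not given here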;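 for HepSE cirrhosis: cirrhosis hepatic side effect score taken from the DILIps (drug-induced liver injury prediction) training set; call rule not given here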;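 for HepSE elevated liver function tests: hepatic side effect score for raised liver function tests, as recorded in the DILIps training set used for predicting drug-induced liver injury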; for HepSE hepatic failure: call rule not given here
Hepatotoxicity [4] = test system: Hepatotoxicity; remark: listed apart in the source;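 for HepSE bilirubinemia: bilirubinemia hepatic side effect score drawn from the DILIps training data, a prediction system for drug-induced liver injury; call rule not given here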;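 for HepSE cholecystitis: Cholecystitis-related hepatic side effect score drawn from the DILIps (drug-induced liver injury prediction) training data set; call rule not given here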;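 for HepSE cholelithiasis: hepatic side effect score for cholelithiasis, drawn from the DILIps training data for predicting drug-induced liver injury; call rule not given here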;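 for HepSE cirrhosis: cirrhosis hepatic side effect score taken from the DILIps (drug-induced liver injury prediction) training set; call rule not given here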;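 for HepSE elevated liver function tests: hepatic side effect score for raised liver function tests, as recorded in the DILIps training set used for predicting drug-induced liver injury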; for HepSE hepatic failure: call rule not given here
Hepatotoxicity [5] = test system: Hepatotoxicity; remark: listed apart in the source; for HepSE hepatic failure: call rule not given here
Hepatotoxicity [6] = test system: Hepatotoxicity; remark: listed apart in the source; for HepSE hepatic failure: call rule not given here
Hepatotoxicity [7] = test system: Hepatotoxicity; remark: listed apart in the source
Hepatotoxicity [8] = test system: Hepatotoxicity; remark: listed apart in the source
Hepatotoxicity [9] = test system: Hepatotoxicity; remark: listed apart in the source
Hepatotoxicity [10] = test system: Hepatotoxicity; remark: listed apart in the source
Hepatotoxicity [11] = test system: Hepatotoxicity; remark: listed apart in the source
Hepatotoxicity [12] = test system: Hepatotoxicity; remark: listed apart in the source
Hepatotoxicity [13] = test system: Hepatotoxicity; remark: listed apart in the source
Hepatotoxicity [14] = test system: Hepatotoxicity; remark: listed apart in the source

Row | Compound | HepSE_bilirubinemia (Hepatotoxicity [1]) | HepSE_cholecystitis (Hepatotoxicity [2]) | HepSE_cholelithiasis (Hepatotoxicity [3]) | HepSE_cirrhosis (Hepatotoxicity [4]) | HepSE_elevated liver function tests (Hepatotoxicity [5]) | HepSE_hepatic failure (Hepatotoxicity [6]) | HepSE_hepatic necrosis (Hepatotoxicity [7]) | HepSE_hepatitis (Hepatotoxicity [8]) | HepSE_hepatomegaly (Hepatotoxicity [9]) | HepSE_jaundice (Hepatotoxicity [10]) | HepSE_liver disease (Hepatotoxicity [11]) | HepSE_liver fatty (Hepatotoxicity [12]) | HepSE_liver function tests abnormal (Hepatotoxicity [13]) | HepSE_Combined Scores (Hepatotoxicity [14]) | also measured
1 | CC(O)(P(=O)(O)O)P(=O)(O)O [ETIDRONIC ACID] | 0 | 0 | 0 | 0 | 0 | 0 | 0 | 0 | 0 | 0 | 0 | 0 | 0 | 0 | 
2 | CCc1cccc2c3c([nH]c12)C(CC)(CC(=O)O)OCC3 (configuration not stated) [ETODOLAC] | 0 | 0 | 0 | 0 | 0 | 1 | 1 | 1 | 0 | 1 | 0 | 0 | 0 | 4 | 
3 | CCOC(=O)c1cncn1[C@H](C)c1ccccc1 [ETOMIDATE] | 0 | 0 | 0 | 0 | 0 | 0 | 0 | 0 | 0 | 0 | 0 | 0 | 0 | 0 | 
4 | COc1cc([C@@H]2c3cc4c(cc3[C@@H](O[C@@H]3O[C@@H]5CO[C@@H](C)O[C@H]5[C@H](O)[C@H]3O)[C@H]3COC(=O)[C@H]23)OCO4)cc(OC)c1O [ETOPOSIDE] |  |  |  |  |  |  |  |  |  |  |  |  |  |  | HepSE_bilirubinemia (Hepatotoxicity [1]; Liver): 0; HepSE_cholecystitis (Hepatotoxicity [2]; Liver): 0; HepSE_cholelithiasis (Hepatotoxicity [3]; Liver): 0; HepSE_cirrhosis (Hepatotoxicity [4]; Liver): 0; HepSE_elevated liver function tests (Hepatotoxicity [5]; Liver): 0; HepSE_hepatic failure (Hepatotoxicity [6]; Liver): 0; HepSE_hepatic necrosis (Hepatotoxicity [7]; Liver): 0; HepSE_hepatitis (Hepatotoxicity [8]; Liver): 0; HepSE_hepatomegaly (Hepatotoxicity [9]; Liver): 0; HepSE_jaundice (Hepatotoxicity [10]; Liver): 0; HepSE_liver disease (Hepatotoxicity [11]; Liver): 0; HepSE_liver fatty (Hepatotoxicity [12]; Liver): 0; HepSE_liver function tests abnormal (Hepatotoxicity [13]; Liver): 0; HepSE_Combined Scores (Hepatotoxicity [14]; Liver): 0
5 | C=C1C[C@@H]2[C@H](CC[C@]3(C)C(=O)CC[C@@H]23)[C@@]2(C)C=CC(=O)C=C12 [EXEMESTANE] | 0 | 0 | 0 | 0 | 0 | 0 | 0 | 1 | 0 | 0 | 0 | 0 | 0 | 1 | 
6 | O=C1[C@H](CC[C@H](O)c2ccc(F)cc2)[C@@H](c2ccc(O)cc2)N1c1ccc(F)cc1 [EZETIMIBE] | 0 | 1 | 1 | 0 | 0 | 0 | 0 | 1 | 0 | 0 | 0 | 0 | 0 | 3 | 
7 | CC(=O)OCC(CCn1cnc2cnc(N)nc21)COC(C)=O [FAMCICLOVIR] | 1 | 0 | 0 | 0 | 0 | 0 | 0 | 0 | 0 | 1 | 0 | 0 | 1 | 3 | 
8 | NC(N)=Nc1nc(CSCCC(N)=NS(N)(=O)=O)cs1 [FAMOTIDINE] |  |  |  |  |  |  |  |  |  |  |  |  |  |  | HepSE_bilirubinemia (Hepatotoxicity [1]; Liver): 0; HepSE_cholecystitis (Hepatotoxicity [2]; Liver): 0; HepSE_cholelithiasis (Hepatotoxicity [3]; Liver): 0; HepSE_cirrhosis (Hepatotoxicity [4]; Liver): 0; HepSE_elevated liver function tests (Hepatotoxicity [5]; Liver): 0; HepSE_hepatic failure (Hepatotoxicity [6]; Liver): 0; HepSE_hepatic necrosis (Hepatotoxicity [7]; Liver): 0; HepSE_hepatitis (Hepatotoxicity [8]; Liver): 0; HepSE_hepatomegaly (Hepatotoxicity [9]; Liver): 0; HepSE_jaundice (Hepatotoxicity [10]; Liver): 1; HepSE_liver disease (Hepatotoxicity [11]; Liver): 0; HepSE_liver fatty (Hepatotoxicity [12]; Liver): 0; HepSE_liver function tests abnormal (Hepatotoxicity [13]; Liver): 0; HepSE_Combined Scores (Hepatotoxicity [14]; Liver): 1
9 | CCOC(=O)C1=C(C)NC(C)=C(C(=O)OC)C1c1cccc(Cl)c1Cl (configuration not stated) [FELODIPINE] | 0 | 0 | 0 | 0 | 0 | 0 | 0 | 1 | 0 | 0 | 0 | 0 | 0 | 1 | 
10 | CC(C)OC(=O)C(C)(C)Oc1ccc(C(=O)c2ccc(Cl)cc2)cc1 [FENOFIBRATE] | 0 | 1 | 1 | 1 | 0 | 0 | 0 | 1 | 0 | 1 | 0 | 1 | 1 | 7 | 
11 | Oc1ccc(C2CNCCc3c2cc(O)c(O)c3Cl)cc1 (configuration not stated) [FENOLDOPAM] | 0 | 0 | 0 | 0 | 0 | 0 | 0 | 0 | 0 | 0 | 0 | 0 | 0 | 0 | 
12 | CC(C(=O)O)c1cccc(Oc2ccccc2)c1 (configuration not stated) [FENOPROFEN] | 0 | 0 | 0 | 0 | 0 | 0 | 0 | 1 | 0 | 1 | 0 | 0 | 0 | 2 | 
13 | CC(C)(C)NC(=O)[C@H]1CC[C@H]2[C@@H]3CC[C@H]4NC(=O)C=C[C@]4(C)[C@H]3CC[C@]12C [FINASTERIDE] | 0 | 0 | 0 | 0 | 0 | 0 | 0 | 0 | 0 | 0 | 0 | 0 | 0 | 0 | 
14 | Cc1c(-c2ccccc2)oc2c(C(=O)OCCN3CCCCC3)cccc2c1=O [FLAVOXATE] | 0 | 0 | 0 | 0 | 0 | 0 | 0 | 0 | 0 | 0 | 0 | 0 | 0 | 0 | 
15 | O=C(NCC1CCCCN1)c1cc(OCC(F)(F)F)ccc1OCC(F)(F)F (configuration not stated) [FLECAINIDE] | 0 | 0 | 0 | 0 | 0 | 1 | 0 | 0 | 0 | 1 | 0 | 0 | 0 | 2 | 
16 | OC(Cn1cncn1)(Cn1cncn1)c1ccc(F)cc1F [FLUCONAZOLE] |  |  |  |  |  |  |  |  |  |  |  |  |  |  | HepSE_bilirubinemia (Hepatotoxicity [1]; Liver): 0; HepSE_cholecystitis (Hepatotoxicity [2]; Liver): 0; HepSE_cholelithiasis (Hepatotoxicity [3]; Liver): 0; HepSE_cirrhosis (Hepatotoxicity [4]; Liver): 0; HepSE_elevated liver function tests (Hepatotoxicity [5]; Liver): 0; HepSE_hepatic failure (Hepatotoxicity [6]; Liver): 1; HepSE_hepatic necrosis (Hepatotoxicity [7]; Liver): 1; HepSE_hepatitis (Hepatotoxicity [8]; Liver): 1; HepSE_hepatomegaly (Hepatotoxicity [9]; Liver): 0; HepSE_jaundice (Hepatotoxicity [10]; Liver): 1; HepSE_liver disease (Hepatotoxicity [11]; Liver): 0; HepSE_liver fatty (Hepatotoxicity [12]; Liver): 0; HepSE_liver function tests abnormal (Hepatotoxicity [13]; Liver): 0; HepSE_Combined Scores (Hepatotoxicity [14]; Liver): 4
17 | Nc1nc(=O)[nH]cc1F [FLUCYTOSINE] | 0 | 0 | 0 | 0 | 0 | 0 | 0 | 0 | 0 | 1 | 0 | 0 | 0 | 1 | 
18 | Nc1nc(F)nc2c1ncn2[C@@H]1O[C@H](CO)[C@@H](O)[C@@H]1O [FLUDARABINE] | 0 | 0 | 1 | 0 | 0 | 1 | 0 | 0 | 0 | 0 | 0 | 0 | 0 | 2 | 
